Measurements taken from patent publication US20150126465A1, “PROCESS FOR PRODUCING DERIVATIVES OF PYROSTEGIA VENUSTA, DERIVATIVES OF PYROSTEGIA VENUSTA, PHARMACEUTICAL COMPOSITIONS AND ITS USES” (priority 2011, published 2015).
Values after ≈ are worked out from the molar mass of the structure shown. Read-outs that look alike come from different tables or passages of the source.

Columns and labels:
Format in all cases: cell-based
[1] = tested on: Candida tropicalis USP 1658; assay: MIC by microdilution (CLSI M27-A2)
[2] = tested on: Candida glabrata ATCC; assay: MIC/CFM against Candida sp. strains; conditions: Nakaseomyces glabratus; Table 14, Candida glabrata ATCC
[3] = tested on: Candida guilhermondii USP; assay: MIC/CFM by microdilution (CLSI M27-A2)
[4] = tested on: Candida albicans ATCC 10231; assay: MIC/CFM by microdilution (CLSI M27-A2); conditions: Candida albicans, ATCC10231, read-out: MIC
[5] = tested on: Candida krusei ATCC 6258; assay: MIC/CFM by microdilution (CLSI M27-A2)
[6] = tested on: Candida krusei USP 2223; assay: MIC by microdilution (CLSI M27-A2)
[7] = tested on: Microsporum canis ATCC 32903; assay: MIC by microdilution, filamentous fungi (CLSI M38-A); conditions: Table 13, Microsporum canis ATCC 32903, 7 days, 28° C.
Protocol: (§1) Pure substances termed P1 and P2 previously dissolved in 20% DMSO, were diluted in RPMI medium, with final concentrations of 96 μg.mL-1. […] Cultures of filamentous fungi described below were inoculated in Agar-Batata Dextrose medium and inoculated for 7 days, at 28° C. Colonies of cultures inoculated for 7 days in an oven at 28° C. were shrouded with 0.85% saline solution, scraped and then transferred to conical tubes. After resting for 5 minutes, the supernatant was transferred to new conical tubes for subsequent quantification in spectrophotometer, at 530 nm, with the transmittance adjustment of 80-82% for A. niger and 70% for other microorganisms. After adjustment, there was a 1:50 dilution in RPM. The determination of Minimum Inhibitory Concentration was performed after 7 days, at 28° C. After the incubation period, aliquots of 96-well plates were transferred to Petri plates with Potato Dextrose Agar, to determine the Minimum Fungicidal Concentration. Plates were inoculated for more 7 days, at 28° C.

[8] = tested on: Phomopsis longicolla (soy isolate); assay: as above; conditions: Table 13, Phomopsis longicolla- soy, 7 days, 28° C.
Protocol: as §1

[9] = tested on: Trichophyton menthagrophyton ATCC 9533; assay: as above; conditions: Table 13, Trichophyton menthagrophyton ATCC 9533, 7 days, 28° C.
Protocol: as §1

[10] = tested on: C. Albicans USP 2; assay: MIC/CFM against Candida sp. strains; conditions: Table 14, C. Albicans USP 2
[11] = tested on: Candida tropicalis USP B3; assay: MIC by microdilution (CLSI M27-A2)
[12] = tested on: Candida parapsilosis ATCC 22019; assay: MIC/CFM by microdilution (CLSI M27-A2)
[13] = tested on: Candida albicans OF-M3-20; assay: MIC/CFM by microdilution (CLSI M27-A2)
Protocol: (§2) Pure substances termed P1 and P2 previously dissolved in 20% DMSO, were diluted in RPMI medium, with final concentrations of 96 μg.mL-1. […] The same was also tested individually, diluted in RPMI medium, with initial concentration of 1 μL.mL-1. […] Cultures of Candida sp. were prepared and standardized in […] saline solution at 0.85%. For inoculums standardization, a spectrophotometer equipment was used, with wavelength at 530 nm and absorbance adjustment between 0.130 and 0.150, having as white the saline solution free of inoculum or any other contaminant, corresponding to concentrations of 10^6 CFU/mL. In this condition the inoculum “mother” was diluted 50 times and from this inoculum “child” the dilution was performed 20 times to obtain a standard inoculum in 10^3 cells per well. […] To aid in the growth view, were added to the wells dye 50 μL 2,3,5-triphenyltetrazolium chloride (TTC) at 5 mg.mL “1, being performed the readings after 4 hours of incubation. Prior to the addition of dye, aliquots of 96-well plate were transferred to Petri with Agar-Sabouraud Dextrose to determine the Minimum Fungicidal Concentration. Plates were incubated for 24 hours at 35° C.

[14] = tested on: Candida albicans OF-M7-19; assay: MIC/CFM by microdilution (CLSI M27-A2)
Protocol: as §2

[15] = tested on: Candida albicans USP 1; assay: MIC/CFM by microdilution (CLSI M27-A2)
Protocol: as §2

[16] = tested on: Candida parapsilosis USP 1933; assay: MIC/CFM by microdilution (CLSI M27-A2)
[17] = tested on: Candida albicans USP 1565; assay: MIC by microdilution (CLSI M27-A2)
[18] = tested on: Trichophyton rubrum ATCC MYA-3108; assay: MIC by microdilution, filamentous fungi (CLSI M38-A); conditions: Table 11, Trichophyton rubrum ATCC MYA-3108
[19] = tested on: Candida krusei ATCC 6258; assay: Diffusion in Agar, halo of inhibition; parameters: unit not given here; conditions: 20 μL per hole, 48 hours at 37° C., controls 80 μg · mL^−1
Protocol: (§3) Cultures of yeasts described below were inoculated in Agar-Sabouraud Dextrose medium and inoculated for 24 hours, at 35° C. Cultures of Candida sp. were prepared and standardized in […] saline solution at 0.85%. For inoculum standardization a spectrophotometer equipment was used with wavelength at 530 nm and absorbance adjustment between 0.130 and 0.150, having as white the saline solution free of inoculum or any other contaminant, corresponding to concentrations of 10^6 CFU/mL. In Petri plates (150×15 mm), were distributed RPMI medium with 0.8% Agar. To these plates, it was added 1 mL of the microorganism suspension in the concentration of 10^6 CFU/mL. After inundation, the suspension excess was removed with the aid of a pipette. With the plate surface already dry, hole of approximately 6.0 mm were made, adding to each hole 20 μL of the samples and control. The plates were then incubated for 48 hours at 37° C., when halo of inhibitions were measured.

[20] = tested on: Candida guilhermondii USP; assay: Diffusion in Agar, halo of inhibition; parameters: unit not given here; conditions: Candida guilhemondii USP; 20 μL per hole, 48 hours at 37° C.; controls 80 μg · mL^−1
Protocol: as §3

[21] = tested on: Candida albicans ATCC 10231; assay: Diffusion in Agar, halo of inhibition; parameters: unit not given here; conditions: 20 μL per hole, 48 hours at 37° C., controls 80 μg · mL^−1
Protocol: as §3

[22] = tested on: Candida tropicalis USP B3; assay: Diffusion in Agar, halo of inhibition; parameters: unit not given here; conditions: 20 μL per hole, 48 hours at 37° C., controls 80 μg · mL^−1
Protocol: as §3

[23] = tested on: Candida parapsilosis ATCC 22019; assay: Diffusion in Agar, halo of inhibition; parameters: unit not given here; conditions: 20 μL per hole, 48 hours at 37° C., controls 80 μg · mL^−1
Protocol: as §3

C[C@@H]1O[C@@H](O[C@@H]2[C@@H](O)[C@H](OCCc3ccc(O)c(O)c3)O[C@H](CO)[C@H]2OC(=O)/C=C/c2ccc(O)c(O)c2)[C@H](O)[C@H](O)[C@H]1O [Fraction P2, verbascoside]
MIC ([1]; Candida tropicalis, USP1658, Table 12, C. tropicalis USP 1658, 48 h, 35° C., read-out: MIC): 1.5 µg/mL (≈ 2.4 µM)
MIC [2]: 0.75 µg/mL (≈ 1.2 µM)
MIC ([3]; Candida, Table 12, C. guilhermondii USP, 48 h, 35° C., read-out: MIC): 0.375 µg/mL (≈ 0.6 µM)
MIC ([3]; Table 14, Candida guilhermondi USPATCC, read-out: MIC): 0.75 µg/mL (≈ 1.2 µM)
MIC ([4]; Table 12, C. albicans ATCC 10231, 48 h, 35° C.): 3 µg/mL (≈ 4.8 µM)
MIC ([4]; Table 14, C. Albicans ATCC 10231): 1.5 µg/mL (≈ 2.4 µM)
MIC ([5]; Pichia kudriavzevii, ATCC6258, Table 12, C. krusei ATCC 6258, 48 h, 35° C., read-out: MIC): 0.375 µg/mL (≈ 0.6 µM)
MIC ([5]; Pichia kudriavzevii, ATCC6258, Table 14, C. krusei ATCC, read-out: MIC): 1.5 µg/mL (≈ 2.4 µM)
MIC ([6]; Pichia kudriavzevii, USP2223, Table 12, C. krusei USP 2223, 48 h, 35° C., read-out: MIC): 0.75 µg/mL (≈ 1.2 µM)
MIC ([6]; Pichia kudriavzevii, USP2223, Table 14, C. krusei USP 2223, read-out: MIC): 1.5 µg/mL (≈ 2.4 µM)
MIC ([7]; ATCC32903, 168 h, read-out: MIC): 12 µg/mL (≈ 19.2 µM)
MIC ([8]; Diaporthe longicolla, 168 h, read-out: MIC): 16 µg/mL (≈ 25.6 µM)
MIC ([9]; ATCC9533, 168 h, read-out: MIC): 48 µg/mL (≈ 76.9 µM)
MIC [10]: 1.5 µg/mL (≈ 2.4 µM)
MIC ([11]; Candida tropicalis, USPB3, Table 14, C. Tropicalis UPS B3, read-out: MIC): 1.5 µg/mL (≈ 2.4 µM)
MIC ([12]; Lodderomyces parapsilosis, ATCC22019, Table 12, C. parapsilosis ATCC 22019, 48 h, 35° C., read-out: MIC): 0.375 µg/mL (≈ 0.6 µM)
MIC ([12]; Lodderomyces parapsilosis, ATCC22019, Table 14, C. parapsilosis ATCC 22019, read-out: MIC): 1.5 µg/mL (≈ 2.4 µM)
MIC ([13]; Candida albicans, OFM320, Table 12, C. albicans OF M3-20, 48 h, 35° C., read-out: MIC): 0.375 µg/mL (≈ 0.6 µM)
MIC ([13]; Candida albicans, OFM320, Table 14, C. Albicans OF M3-20, read-out: MIC): 1.5 µg/mL (≈ 2.4 µM)
MIC ([14]; Candida albicans, OFM719, Table 12, C. albicans OF M7-19, 48 h, 35° C., read-out: MIC): 0.375 µg/mL (≈ 0.6 µM)
MIC ([14]; Candida albicans, OFM719, Table 14, C. Albicans OF M7-19, read-out: MIC): 0.75 µg/mL (≈ 1.2 µM)
MIC ([15]; Candida albicans, USP1, Table 12, C. albicans USP 1, 48 h, 35° C., read-out: MIC): 0.375 µg/mL (≈ 0.6 µM)
MIC ([15]; Candida albicans, USP1, Table 14, C. Albicans USP 1, read-out: MIC): 1.5 µg/mL (≈ 2.4 µM)
MIC ([16]; Lodderomyces parapsilosis, USP1933, Table 12, C. parapsilosis USP 1933, 48 h, 35° C., read-out: MIC): 0.75 µg/mL (≈ 1.2 µM)
MIC ([16]; Lodderomyces parapsilosis, USP1933, Table 14, C. parapsilosis USP 1933 ATCC, read-out: MIC): 1.5 µg/mL (≈ 2.4 µM)
MIC ([17]; Candida albicans, USP1565, Table 12, C. albicans USP 1565, 48 h, 35° C., read-out: MIC): 0.375 µg/mL (≈ 0.6 µM)

Nistatina
MIC ([1]; Table 11, C. Tropicalis USP 1658): 6.25 µg/mL
MIC ([1]; Table 12, C. tropicalis USP 1658, 48 h, 35° C.): 6.125 µg/mL
MIC ([3]; Table 11, C. guilhermondii USP): 3.125 µg/mL
MIC ([3]; Table 12, C. guilhermondii USP, 48 h, 35° C.): 6.25 µg/mL
MIC ([5]; Table 11, C. krusei ATCC 6258): 6.25 µg/mL
MIC ([5]; Table 12, C. krusei ATCC 6258, 48 h, 35° C.): 6.25 µg/mL
MIC ([6]; Table 11, C. krusei ATCC 2223): 6.25 µg/mL
MIC ([6]; Table 12, C. krusei USP 2223, 48 h, 35° C.): 6.25 µg/mL
MIC [7]: 12.5 µg/mL
MIC [8]: 3.125 µg/mL
MIC [9]: 12.5 µg/mL
MIC [18]: 3.125 µg/mL
MIC ([11]; Table 11, C. Tropicalis USP B3): 6.25 µg/mL
Halo of inhibition [19]: 1.2
Halo of inhibition [20]: 1.1
Halo of inhibition [21]: 1.5
Halo of inhibition [22]: 0
Halo of inhibition [23]: 1.6
MIC ([12]; Table 12, C. parapsilosis ATCC 22019, 48 h, 35° C.): 6.25 µg/mL
MIC ([13]; Table 12, C. albicans OF M3-20, 48 h, 35° C.): 12.5 µg/mL
MIC ([14]; Table 12, C. albicans OF M7-19, 48 h, 35° C.): 12.5 µg/mL
MIC ([15]; Table 12, C. albicans USP 1, 48 h, 35° C.): 6.25 µg/mL
MIC ([16]; Table 11, C. parapsilosis USP 1933): 6.25 µg/mL
MIC ([16]; Table 12, C. parapsilosis USP 1933, 48 h, 35° C.): 12.5 µg/mL
MIC ([17]; Table 11, C. Albicans USP 1565): 6.25 µg/mL
MIC ([17]; Table 12, C. albicans USP 1565, 48 h, 35° C.): 6.25 µg/mL
